# Experimental data from US11851440B2, “Modulators of eukaryotic initiation factor 2B, compositions and methods” (Denali Therapeutics Inc., priority 2017, dated 2023).
# System: ISR pathway (ATF4 translation)
# Test: ATF4 Nano Luciferase reporter integrated stress response (ISR) assay in H4 ATF4-NLuc cells
# Conditions: Homo sapiens, H4 ATF4-NLuc (clone 17) cells; compound 30 minutes, then 50 um sodium arsenite for 6 hours; luminescence readout
row,IC50 [µM],Structure (SMILES)
1,0.0025,"O=C(COc1ccc(Cl)c(F)c1)NC12CC(c3nnc([C@H]4C[C@@H](OC(F)(F)F)C4)o3)(C1)C2 [Example 6, 2-(4-chloro-3-fluoro-phenoxy)-N-[1-[5-[cis-3-(trifluoromethoxy)cyclobutyl]-1,3,4-oxadiazol-2-yl]-3-bicyclo[1.1.1]pentanyl]acetamide]"

# Same assay, conditions: Homo sapiens, read-out: Activity (IC50), H4 ATF4-NLuc (clone 17) cells; compound 30 minutes, then 50 um sodium arsenite for 6 hours; luminescence readout
row,IC50 [µM],Structure (SMILES)
1,< 1,"N#C[C@H]1C[C@H](n2cc(C34CC(NC(=O)COc5ccc(Cl)c(F)c5)(C3)C4)nn2)C1 [Example 34, 2-(4-chloro-3-fluorophenoxy)-N-(3-(1-((trans)-3-cyanocyclobutyl)-1H-1,2,3-triazol-4-yl)bicyclo[1.1.1]pentan-1-yl)acetamide]"
2,< 1,"C[C@H]1C[C@@H]1c1nnc(C23CC(NC(=O)COc4ccc(Cl)c(F)c4)(C2)C3)o1 (relative stereo) [Example 9, 2-(4-chloro-3-fluoro-phenoxy)-N-[1-[5-[(trans)-2-methylcyclopropyl]-1,3,4-oxadiazol-2-yl]-3-bicyclo[1.1.1]pentanyl]acetamide]"
3,< 1,O=C(NC12CC(c3nnc([C@H]4C[C@@H](OC(F)(F)F)C4)o3)(C1)C2)c1cnc2ccccc2n1 [Example 188]
4,< 1,O=C(CO[C@H]1C[C@@H](OC(F)(F)F)C1)NC12CC(c3cn(-c4ccc(Cl)c(F)c4)cn3)(C1)C2 [Example 228]
5,< 1,O=C(CO[C@H]1C[C@@H](OC(F)(F)F)C1)NC12CC(c3nc(-c4ccc(Cl)cc4)no3)(C1)C2 [Example 205]
6,< 1,O=C(COc1ccc(Cl)c(F)c1)NC12CC(NCCO[C@H]3C[C@@H](n4nccn4)C3)(C1)C2 [Example 197]
7,< 1,O=C(CO[C@H]1C[C@@H](OC(F)(F)F)C1)NC12CC(n3cnc(-c4cccc(C(F)(F)F)c4)c3)(C1)C2 [Example 134]
8,< 1,"C#CCN(C(=O)COc1ccc(Cl)cc1)C12CC(c3nnc([C@H]4C[C@@H](OC(F)(F)F)C4)o3)(C1)C2 [Example 74, 2-(4-chlorophenoxy)-N-prop-2-ynyl-N-[1-[5-[3-cis-(trifluoromethoxy)cyclobutyl]-1,3,4-oxadiazol-2-yl]-3-bicyclo[1.1.1]pentanyl]acetamide]"
9,1 to 10,O=C(CCc1ccc(Cl)cn1)NC12CC(c3nnc([C@H]4C[C@@H](OC(F)(F)F)C4)o3)(C1)C2 [Example 56]
10,1 to 10,"O=C(COc1ccc(Cl)cc1)NC12CC(c3nnc(C4CCOC4)o3)(C1)C2 (centres unmarked) [Example 1, 2-(4-Chlorophenoxy)-N-[3-(5-tetrahydrofuran-3-yl-1,3,4-oxadiazol-2-yl)-1-bicyclo[1.1.1]pentanyl]acetamide]"
11,< 1,O=C(NC12CC(c3nnc([C@H]4C[C@@H](OC(F)(F)F)C4)o3)(C1)C2)c1nc2cc(Br)ccc2o1 [Example 193]
12,< 1,O=C(NC12CC(c3nnc([C@H]4C[C@@H](OC(F)(F)F)C4)o3)(C1)C2)c1cn2ccc(F)cc2n1 [Example 170]
13,1 to 10,"O=C(COC1CC2(CC2)C1)NC12CC(c3nnc([C@H]4C[C@@H](OC(F)(F)F)C4)o3)(C1)C2 [Example 115, 2-spiro[2.3]hexan-5-yloxy-N-[3-[5-[3-cis-(trifluoromethoxy)cyclobutyl]-1,3,4-oxadiazol-2-yl]-1-bicyclo[1.1.1]pentanyl]acetamide]"
14,< 1,"CC(C)(C)OC(=O)N1CC(c2nnc(C34CC(NC(=O)COc5ccc(Cl)c(F)c5)(C3)C4)o2)C1 [Example 13, tert-Butyl 3-[5-[3-[[2-(4-chloro-3-fluoro-phenoxy)acetyl]amino]-1-bicyclo[1.1.1]pentanyl]-1,3,4-oxadiazol-2-yl]azetidine-1-carboxylate]"
15,< 1,"O=C(COc1ccc(Cl)c(F)c1)NC12CC(c3nnc(C4CCN(CC(F)(F)F)C4)o3)(C1)C2 (centres unmarked) [Example 16, 2-(4-chloro-3-fluoro-phenoxy)-N-[1-[5-[1-(2,2,2-trifluoroethyl)pyrrolidin-3-yl]-1,3,4-oxadiazol-2-yl]-3-bicyclo[1.1.1]pentanyl]acetamide]"
16,< 1,O=C(NC12CC(c3nnc([C@H]4C[C@@H](OC(F)(F)F)C4)o3)(C1)C2)c1ncc2cc(Cl)ccc2n1 [Example 195]
17,< 1,"O=C(COc1ccc(Cl)c(F)c1)NC12CC(c3nnc(C4CC4)o3)(C1)C2 [Example 17, 2-(4-chloro-3-fluoro-phenoxy)-N-[3-(5-cyclopropyl-1,3,4-oxadiazol-2-yl)-1-bicyclo[1.1.1]pentanyl]acetamide]"
18,< 1,O=C(CO[C@H]1C[C@@H](OC(F)(F)F)C1)NC12CC(c3nnc([C@H]4C[C@@H](OC(F)(F)F)C4)o3)(C1)C2 [Example 50]

row,IC50 [µM],Structure (SMILES)
1,< 1,O=C(NC12CC(c3nnc([C@H]4C[C@@H](OC(F)(F)F)C4)o3)(C1)C2)c1cc2ccc(Br)cc2cn1 [Example 184]
2,< 1,"O=C(COc1ccc(Cl)cc1)NC12CC(n3cnc([C@H]4C[C@H](OC(F)(F)F)C4)c3)(C1)C2 [Example 69, 2-(4-chlorophenoxy)-N-[3-[4-[3-trans-(trifluoromethoxy)cyclobutyl]imidazol-1-yl]-1-bicyclo[1.1.1]pentanyl]acetamide]"
3,< 1,O=C(CO[C@H]1C[C@@H](OC(F)(F)F)C1)NC12CC(n3cnc(C4CC(OC(F)(F)F)C4)c3)(C1)C2 (some centres unmarked) [Example 52]
4,< 1,"CC1C(c2nnc(C34CC(NC(=O)COc5ccc(Cl)c(F)c5)(C3)C4)o2)CN1C(=O)OC(C)(C)C (centres unmarked) [Example 122, tert-butyl 3-[5-[3-[[2-(4-chloro-3-fluoro-phenoxy)acetyl]amino]-1-bicyclo[1.1.1]pentanyl]-1,3,4-oxadiazol-2-yl]-2-methyl-azetidine-1-carboxylate]"
5,< 1,O=C(CO[C@H]1C[C@@H](n2nccn2)C1)NC12CC(n3cnc(-c4ccc(Cl)c(F)c4)c3)(C1)C2 [Example 230]
6,< 1,O=C(CO[C@H]1C[C@@H](OC(F)(F)F)C1)NC12CC(c3nnc(OCCOC(F)(F)F)o3)(C1)C2 [Example 276]
7,< 1,O=C(CO[C@H]1C[C@@H](OC(F)(F)F)C1)NC12CC(c3cc(-c4ccc(Cl)cc4F)no3)(C1)C2 [Example 252]
8,< 1,Cc1cc(-c2cn(C34CC(NC(=O)CO[C@H]5C[C@@H](OC(F)(F)F)C5)(C3)C4)cn2)ccc1F [Example 147]
9,1 to 10,O=C(CO[C@H]1C[C@@H](n2nccn2)C1)NC12CC(c3nnc([C@H]4C[C@@H](OC(F)(F)F)C4)o3)(C1)C2 [Example 172]
10,< 1,O=C(COCCn1cc(F)cn1)NC12CC(n3cnc(-c4ccc(Cl)cc4)c3)(C1)C2 [Example 145]
11,< 1,O=C(NC12CC(n3cnc(-c4ccc(F)c(F)c4)c3)(C1)C2)[C@H]1C[C@@H](OCCOC(F)(F)F)C1 [Example 229]
12,1 to 10,"O=C(COc1ccc(Cl)cc1)NC12CC(c3nnc(CC(F)(F)F)o3)(C1)C2 [Example 4, 2-(4-chlorophenoxy)-N-[3-[5-(2,2,2-trifluoroethyl)-1,3,4-oxadiazol-2-yl]-1-bicyclo[1.1.1]pentanyl]acetamide]"
13,< 1,"O=C(COc1ccc(Cl)c(F)c1)NC12CC(N3C[C@@H](C4CC(OC(F)(F)F)C4)OC3=O)(C1)C2 (single isomer, unassigned) [Example 208]"
14,1 to 10,"C#CC12CC(NC(=O)COc3ccc(Cl)c(F)c3)(C1)C2 [Example 31, 2-(4-chloro-3-fluorophenoxy)-N-(3-ethynylbicyclo[1.1.1]pentan-1-yl)acetamide]"
15,< 1,"O=C(COc1ccc(Cl)c(F)c1)NC12CC(c3nnc(COC(F)(F)F)o3)(C1)C2 [Example 45, 2-(4-chloro-3-fluoro-phenoxy)-N-[1-[5-(trifluoromethoxymethyl)-1,3,4-oxadiazol-2-yl]-3-bicyclo[1.1.1]pentanyl]acetamide]"
16,< 1,"O=C(COc1ccc(Cl)c(F)c1)NC12CC(c3nnc([C@H]4C[C@@H](OC(F)(F)F)C4)o3)(C1)C2 [Example 6, 2-(4-chloro-3-fluoro-phenoxy)-N-[1-[5-[cis-3-(trifluoromethoxy)cyclobutyl]-1,3,4-oxadiazol-2-yl]-3-bicyclo[1.1.1]pentanyl]acetamide]"
17,< 1,O=C(NC12CC(c3nnc([C@H]4C[C@@H](OC(F)(F)F)C4)o3)(C1)C2)N1CCc2cc(Cl)ccc2C1 [Example 268]
18,< 1,Cc1ccc(-c2cn(C34CC(NC(=O)CO[C@H]5C[C@@H](OC(F)(F)F)C5)(C3)C4)cn2)cc1F [Example 140]

row,Structure (SMILES),IC50 [µM]
1,"Cc1nc(C2CC(OC(F)(F)F)C2)cn1C12CC(NC(=O)CO[C@H]3C[C@@H](OC(F)(F)F)C3)(C1)C2 (stereo partly drawn) [Example 96, N-[3-[2-methyl-4-[3-(trifluoromethoxy)cyclobutyl]imidazol-1-yl]-1-bicyclo[1.1.1]pentanyl]-2-[3-cis-(trifluoromethoxy)cyclobutoxy]acetamide]",< 1
2,"O=C(CO[C@H]1C[C@@H](OC(F)(F)F)C1)NC12CC(c3nnc(-c4ccc(Cl)c(F)c4)o3)(C1)C2 [Example 12, N-[3-[5-(4-chloro-3-fluoro-phenyl)-1,3,4-oxadiazol-2-yl]-1-bicyclo[1.1.1]pentanyl]-2-[cis-3-(trifluoromethoxy)cyclobutoxy]acetamide]",< 1
3,"O=C(CO[C@H]1C[C@@H](OC(F)(F)F)C1)NC12CC(c3nnc(-c4cncc(F)c4)o3)(C1)C2 [Example 73, N-[1-[5-(5-fluoro-3-pyridyl)-1,3,4-oxadiazol-2-yl]-3-bicyclo[1.1.1]pentanyl]-2-[3-cis-(trifluoromethoxy)cyclobutoxy]acetamide]",1 to 10

# Same assay, conditions: read-out: Activity (IC50); H4 ATF4-NLuc (clone 17) cells; compound 30 minutes, then 50 um sodium arsenite for 6 hours; luminescence readout
row,IC50 [µM],Structure (SMILES)
1,< 1,"O=C(NC12CC(c3nnc([C@H]4C[C@@H](OC(F)(F)F)C4)o3)(C1)C2)C1CCc2cc(F)ccc2O1 (single isomer, unassigned) [Example 160]"
2,1 to 10,O=C(COc1ccc(Cl)c(F)c1)NC12CC(C3CN(C4CCC4)C(=O)O3)(C1)C2 (centres unmarked) [Example 59]
3,< 1,O=C(COC[C@H]1C[C@@H](OC(F)(F)F)C1)NC12CC(c3nnc([C@H]4C[C@@H](OC(F)(F)F)C4)o3)(C1)C2 [Example 226]

row,Structure (SMILES),IC50 [µM]
1,"O=C(COC1CC(OC(F)(F)F)C1)NC12CC(c3nnc(C4C[C@H]4COC(F)(F)F)o3)(C1)C2 (single isomer, unassigned) [Example 91, 2-[3-cis-(trifluoromethoxy)cyclobutoxy]-N-[3-[5-[2-trans-(trifluoromethoxymethyl)cyclopropyl]-1,3,4-oxadiazol-2-yl]-1-bicyclo[1.1.1]pentanyl]acetamide]",< 1
